In a melting point compilation (Tetko et al.; mined from patent text by program, amines drawn as free bases though some values may be those of a salt):

SMILES	melting point
CCOC(=O)CNC(=O)C(C)(C)c1ccc(C2=NC(C)(C)Cc3cc(OC)c4c(c32)CC(C)(C)O4)cc1	133 to 138 °C
O=C(Cc1ccncc1)[N+]1([O-])CCC(C2c3ccc(Cl)cc3CCc3cccnc32)CC1 (stereo not drawn)	125 to 126 °C
Cc1ccc([N+](=O)[O-])cc1/C=C/c1nc(C(C)C)cs1	87 to 88 °C
CC(C)(C)c1cc(N2CCCCC2=O)cc(C(C)(C)C)c1O	212 to 214 °C
CNC(=O)c1ccc(-c2cccc(C3=NC(C)(C)Cc4cc(OC)c5c(c43)CC(C)(C)O5)c2)cc1	242 to 244 °C
Cc1ccc2c(c1)C(=O)C[C@H]1CCN(C)C[C@H]21 (relative stereo)	> 250 °C
CC(C)n1c(=O)nc(-c2ccc3c(c2)CCO3)c2cc3c(cc21)OCO3	206 to 209 °C
CCc1nc2ccc(Cl)cc2c(=O)n1CCCn1ccnc1	147 to 149 °C
BrCc1ccc(CBr)c(Br)c1	90 to 91 °C
CC(CN1CCCS1(=O)=O)c1ccncc1 (stereo not drawn)	90 to 92 °C
N=c1sc2cc(OC(F)(F)F)ccc2n1CCS(=O)c1ncccn1 (stereo not drawn)	120 °C
O=[N+]([O-])c1ccc(Oc2ccc(-n3cncn3)cc2)cc1	131 to 132 °C
COc1ccc(-c2cn3c(n2)CCC3)cc1	116 to 118 °C
CC(CC(C)Oc1ccc(-c2ccc(C#N)cc2)cc1)Oc1ccc(-c2ccc(C#N)cc2)cc1 (stereo not drawn)	140 °C
Oc1nc(Cc2ccc(F)cc2)ncc1F	169 to 170 °C
CN(C)C(=O)CCC(=O)NC1CCC(CCN2CCN(c3nccc4c3CCO4)CC2)CC1 (stereo not drawn)	188 °C
CN1CC[C@@H]2CC(=O)c3cc(F)c(F)cc3[C@@H]2C1 (relative stereo)	> 250 °C

SMILES	melting point
Clc1ccc(-n2nc3c(c2Br)CCC3)cc1	109 to 112 °C
N#CC1=C(c2cccs2)Nc2n[nH]cc2C1c1cccc(Cl)c1Cl (stereo not drawn)	232 °C
Cc1c(SCc2ccco2)ccnc1CO	60 to 62 °C
CC1COCc2nc3c(N)nc4cc(CCC(=O)N(C)C)ccc4c3n21 (stereo not drawn)	235 to 237 °C
COc1cc(OC)cc(N2CCN(C(=S)Nc3cc(C(C)O)c(C)nc3OC)CC2)c1 (stereo not drawn)	189 to 190 °C
O=c1[nH]ncc2[nH]c(-c3ccc(OC(F)F)c(OC4CC4)c3)cc12	287 to 292 °C
CC1Nc2ccc(-c3csc(C#N)c3)cc2C2(CCCCC2)O1 (stereo not drawn)	111 to 112 °C
Cc1ccc2c(c1F)N(C1CC1)CNS2(=O)=O	135 to 138 °C
Sc1nc(-c2ccc(Cl)cc2)c(-c2cccs2)[nH]1	274 to 276 °C
COC(=O)/C=C/c1ccc(N2CCCC2=O)nc1	151 to 160 °C
CC(C)c1cc(CCC(=O)O)n(Cc2ccc(C(F)(F)F)cc2Cl)n1	117 to 119 °C
COc1ccc2ccc(O)c(C=O)c2c1	126 °C
CCC(CC)Oc1cc(C)nc(Oc2c(C)cc(C)cc2C)c1N	96 to 98 °C
NS(=O)(=O)c1ccc(-n2nc(C(F)(F)F)cc2-c2nc3ccc(Cl)cc3s2)cc1	254 to 255 °C
CCCCN1C(=O)NC(CCC(=O)O)C1=O (stereo not drawn)	130 °C
CN(C)c1ccc(-n2ccn(C3CCc4ccccc4C3)c2=S)nn1 (stereo not drawn)	198 to 199 °C
COc1cc2c(N)nc(N3CCN(c4nc5cccccc-5n4)CC3)nc2c(OC)c1OC	284 to 285 °C

The remaining lines, values ahead:

melting point	SMILES
48 to 50 °C	CNc1nc2ccccc2n1CCOS(C)(=O)=O
> 260 °C	CCOC(=O)c1cnc2ccc(Cl)cc2c1O
95 °C	N#CCc1ccc(OCc2ccccc2)c2c1OCCO2
114 to 115 °C	COC(=O)C=Cc1ccc(OCCc2nc(-c3ccccc3)oc2C)cc1
180 to 182 °C	CCOC(=O)COc1ccc(SCc2cccc3nc(-c4ccc(C(F)(F)F)cc4)oc23)cc1C
240 to 247 °C	O=C(NCc1ccc(-c2n[nH]c3c2Cc2ccccc2-3)s1)N1CCOCC1
176 to 177 °C	CNC(=O)c1ccc(N2CC(CNC(C)=S)OC2=O)cc1F (stereo not drawn)
95 to 96 °C	CCOC(=O)C(=O)c1ccc(OCCCCC(=O)c2cc(C(C)(C)C)c(O)c(C(C)(C)C)c2)cc1
141 to 142 °C	O=C(C(=O)c1ccc(C(F)(F)F)cc1)c1ccc(C(F)(F)F)cc1
115 to 116 °C	CC1(C)N=C(n2ccccc2=O)c2cc(C#N)ccc2O1
83 to 84 °C	CC1(C)CC(O)c2cc(OCc3ccccc3)ccc2O1 (stereo not drawn)
59 to 60 °C	CCCc1cc(CC(=O)OC)ccc1OC1COc2ccc(C(C)=O)c(O)c2C1 (stereo not drawn)
115 to 117 °C	O=[N+]([O-])c1cccnc1Oc1nn(Cc2ccccc2F)c2ncccc12
101 to 106 °C	OCc1ccccc1-c1ccc(CBr)cc1
148 to 150 °C	CON(c1ccc([N+](=O)[O-])cc1C#N)S(=O)(=O)c1ccc(C)cc1
199 to 201 °C	Nc1cc(Cl)c([N+](=O)[O-])cc1OC(=O)c1ccccc1
161 to 163 °C	COc1cc2c(cc1OC)C(C(CO)CO)N(C(=O)c1ccccc1)CC2 (stereo not drawn)
88 to 89 °C	CS(=O)(=O)OCCCCCCc1ccc(OCc2coc(/C=C/c3ccccc3)n2)cc1
121 to 122 °C	COc1ccc(C2(O)CCN(CC3CN(c4ccccc4)C(=O)O3)CC2)cc1 (stereo not drawn)
172 to 173 °C	Cc1cc(NC(=O)OC(C)(C)C)c(N)cc1C#Cc1ccccc1

melting point	SMILES
165 to 166 °C	CCCCCC1=C(/C=C/C(=O)O)Cc2cc(OC)ccc21
105 °C	O=C(O)Cc1ccc(OCCNC(=O)C2Cc3ccccc3N2S(=O)(=O)c2ccc(-c3cc(C(F)(F)F)ccc3Cl)cc2)cc1F (stereo not drawn)
126 °C	COC(=O)c1cc(C(=O)c2cccc(Cl)c2)cn1C
172 to 174 °C	CCc1nnc2c(Nc3ccccc3)nc3ccccc3n12
88 to 89 °C	O=C(OSc1ccccn1)c1ccc(Cc2ccc(F)cc2)o1
236 to 239 °C	CCC1=Nc2cccc(Cl)c2C(=O)C1
187 to 188 °C	O=C(O)C1CCOc2c(Cl)cc(-c3ccccc3)cc21 (stereo not drawn)
> 260 °C	O=C(Cn1c(-c2ccc(Cl)cc2)nc2cccnc21)Nc1nccs1
230 to 235 °C	NC1(c2ccccc2)C(=O)Nc2ccc(Cl)cc21 (stereo not drawn)
57 to 60 °C	OCCN1CCN(C2=Nc3ccccc3Sc3ccccc32)CC1
96 to 97 °C	Cc1ccc(-c2c(C#N)cnc3ccccc23)cc1
68 to 72 °C	CCC(OCc1ccc(-c2ccc(Cl)cc2)cc1)(C(=O)OC)c1ccccc1 (stereo not drawn)
136 to 138 °C	CCOC(=O)Cn1c(-c2cc3c(cc2[N+](=O)[O-])OCO3)nc2ccccc21
144 to 145 °C	CNc1nc(C(C)c2ccc(-c3ccccc3)c(F)c2)cs1 (stereo not drawn)
179 to 182 °C	N#Cc1cccc(C2C(=O)c3ccccc3C2=O)c1
107 °C	COCCNC(=O)C1CCCN1S(=O)(=O)c1ccc(Cl)c(COc2cccc3ccc(C)nc23)c1Cl (stereo not drawn)
144 °C	COC(=O)CC1OCCN(CCc2c[nH]c3ccccc23)C1=O (stereo not drawn)
167 to 169 °C	Cn1cc(S(C)=O)c(=O)c2sc(-c3ccccc3Cl)cc21 (stereo not drawn)
95 to 96 °C	C#Cc1ccc(NC=C(C(=O)NCCC)C(=O)c2ccccc2Cl)cc1
